No end group written: not given here.
Tests used:
SARS-COV-2 RBD = SARS-COV-2 RBD (Severe acute respiratory syndrome coronavirus 2, UniProt P0DTC2); assay: biochemical; format: binding
[1] = molecular target: SARS-COV-2 RBD protein with His-tag, purified by recombinant expression in Pichia pastoris (SARS-COV-2), P0DTC2; assay: SPR at 25 C; His-tagged RBD captured by anti-His tag, peptide flowed over

Row | Molecule | Kd (SARS-COV-2 RBD) [pM] | Kd [1] [pM]
1 | EENAKTFLNNFNQEAEDLSYQSSLASWNYNT [peptide4] | 1.26 to 8.16 | –
2 | QEQAQTYLDGYNKTYQDLVYKDNLAQWTLNT [peptide2] | 3.55 to 4.09 | –
3 | QEQAQTYLDGYNKTYQDLVYKDNLAQWTLNT (modifications not checked) [peptide2 (WP_072363071.1:30-60 M2 family metallopeptidase [Chitinophaga sancti])] | – | 3.55 to 4.09
4 | EENAKTFLNNFNQEAEDLSYQSSLASWNYNT (modifications not checked) [peptide4 (BAB40431.1:22-52 angiotensin-converting enzyme-related carboxypeptidase [Mus musculus])] | – | 1.26 to 8.16

— patent publication US20260167674A1, “ACE2 […] SEQUENCES” (priority 2023, published 2026)
